Test results from paper PMC6339703, “Visualizing the Distribution of Matrix Metalloproteinases in Ischemic Brain Using In Vivo ^19F-Magnetic Resonance Spectroscopic Imaging” (Contrast Media & Molecular Imaging, 2019).

Legend:
MMP9 = MMP9 (Homo sapiens, UniProt P14780); assay: in vitro MMP inhibition assay (Eurofins Panlabs); type: biochemical
MMP2 = target: T1, MMP2 (Homo sapiens, UniProt P08253); assay: in vitro MMP inhibition assay (Eurofins Panlabs); type: biochemical
T1 sequence (P08253 110-660): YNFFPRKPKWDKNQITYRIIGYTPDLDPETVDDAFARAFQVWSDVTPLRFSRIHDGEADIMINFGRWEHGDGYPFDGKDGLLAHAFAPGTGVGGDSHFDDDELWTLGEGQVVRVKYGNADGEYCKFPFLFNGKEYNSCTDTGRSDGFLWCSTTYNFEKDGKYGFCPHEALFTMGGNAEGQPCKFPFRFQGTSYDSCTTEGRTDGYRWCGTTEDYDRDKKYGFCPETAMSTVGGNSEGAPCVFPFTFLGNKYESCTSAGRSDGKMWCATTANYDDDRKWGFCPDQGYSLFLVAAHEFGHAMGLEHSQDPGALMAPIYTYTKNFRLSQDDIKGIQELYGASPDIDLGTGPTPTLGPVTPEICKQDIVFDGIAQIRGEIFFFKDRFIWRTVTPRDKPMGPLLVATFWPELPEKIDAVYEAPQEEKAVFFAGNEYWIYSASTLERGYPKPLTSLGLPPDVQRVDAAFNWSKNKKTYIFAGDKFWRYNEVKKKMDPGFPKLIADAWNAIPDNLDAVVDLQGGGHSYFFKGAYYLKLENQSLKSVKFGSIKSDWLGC

Sequence of MMP9 (P14780 107-707): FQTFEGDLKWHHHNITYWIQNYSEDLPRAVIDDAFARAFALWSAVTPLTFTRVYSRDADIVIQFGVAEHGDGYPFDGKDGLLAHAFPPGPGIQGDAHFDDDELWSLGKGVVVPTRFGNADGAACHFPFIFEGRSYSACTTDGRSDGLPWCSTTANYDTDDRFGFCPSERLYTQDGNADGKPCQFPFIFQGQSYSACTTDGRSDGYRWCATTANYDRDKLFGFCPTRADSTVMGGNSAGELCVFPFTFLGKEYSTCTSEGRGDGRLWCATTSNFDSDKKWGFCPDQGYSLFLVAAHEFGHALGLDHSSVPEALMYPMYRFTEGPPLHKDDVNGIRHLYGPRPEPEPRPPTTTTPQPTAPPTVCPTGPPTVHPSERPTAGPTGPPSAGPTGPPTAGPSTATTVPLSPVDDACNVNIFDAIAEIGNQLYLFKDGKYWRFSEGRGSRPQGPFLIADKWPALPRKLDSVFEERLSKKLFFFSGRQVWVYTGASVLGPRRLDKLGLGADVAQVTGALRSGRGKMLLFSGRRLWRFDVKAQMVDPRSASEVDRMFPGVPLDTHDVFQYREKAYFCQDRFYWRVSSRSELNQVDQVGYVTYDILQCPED

CNC(=O)C(Cc1c[nH]c2ccc(F)cc12)NC(=O)C(CC(=O)NO)CC(C)C (mixture of isomers) [TGF-019]
in vitro MMP inhibition assay (Eurofins Panlabs) (MMP9): completely inhibit | in vitro MMP inhibition assay (Eurofins Panlabs) (MMP2): completely inhibit
